Laboratory results: patent US20150079174A1, “ANTIMICROBIAL COMPLEXES” (Matera, LDA, priority 2012, published 2015)
Where two headings read alike, the source gives them in different places. Values belong to the molecule of their own block, whether it stands above or below them.

Experiments:
[1] = Critical micelle concentration (CMC) with fluorescent probe N-phenyl-1-naphthylamine; type: physicochemical; conditions: surfactant in PBS pH 7.4
Protocol: Critical Micelle Concentration (CMC) was determined for a range of surfactants, following the method described by Brito et al. ‘Determination of the critical micelle concentration of surfactants using the fluorescent probe N-phenyl-1-naphthylamine.’ Anal. Biochem 1986 (152) 250-255.
Briefly, the surfactants were dissolved in PBS (pH 7.4), serially diluted and mixed with N-phenyl-1-naphthylamine (NPN; TCI). The fluorescence of each sample was quantified (excitation at 350 nm; emission at 420 nm) and plotted against the concentration of each surfactant. The CMC was found at the intersection of two straight lines traced on the emission intensity plot, defining the aqueous and micellar environments.
The evolution of SWCNTs resuspension was performed by optical density measurement (at 600 nm) on a microplate reader. N-phenyl-1-naphthylamine (NPN) (Sigma-Aldrich) was used to determine the DDAB critical micelle concentration (CMC) and the presence of micelles on the SWCNT suspension. A solution of NPN of 2×10^−1 M in ethanol was prepared and further diluted in PBS to the working concentration of 2×10^−4 M. DDAB or SWCNT-DDAB suspensions were mixed in equal volumes on a opaque 96-well plate and the fluorescence measured with the assistance of a SpectraMax Fluoremeter using an excitation and emission wavelength of 320 and 450 nm, respectively.

[2] = tested on: Staphylococcus aureus ATCC 6538; assay: Minimal inhibitory concentration (growth kinetics at 600 nm / broth microdilution); conditions: for MIC: Staphylococcus aureus, ATCC6538, 18 h
[3] = tested on: Candida albicans ATCC 10231; assay: as above; conditions: for MIC: Candida albicans, ATCC10231, 18 h
[4] = tested on: Escherichia coli ATCC 25922; assay: as above; conditions: for MIC: Escherichia coli, ATCC25922, 18 h
[5] = read-out: MIC S. aureus, soluble surfactant, 15.6 to 500 μg/ml, 18 h at 37° C.
[6] = soluble surfactant, 15.6 to 500 μg/ml, 18 h at 37° C.

CMC [1]: 32.4 µg/mL
MIC [2, 5]: 31.2 µg/mL
MIC S. aureus [2, 6]: 31.3 µg/mL
MIC ([3]; read-out: MIC C. albicans, soluble surfactant, 62.5 to 500 μg/ml, 18 h at 30° C.): 125 µg/mL
MIC C. albicans ([3]; soluble surfactant, 62.5 to 500 μg/ml, 18 h at 30° C.): 250 µg/mL
MIC ([4]; read-out: MIC E. coli): 125 µg/mL
SMILES: CCCCCCCCCCCC[N+](C)(C)CCCCCCCCCCCC.[Br-] [DDAB, didodecyldimethylammonium bromide]

CMC [1]: 5.2 µg/mL
SMILES: CCCCCCCCCCCCCCCC[N+](C)(C)CCCCCCCCCCCCCCCC.[Br-] [DHDAB, dihexadecyldimethylammonium bromide]

SMILES: CCCCCCCCCCCC[N+](C)(C)C.[Br-] [DTAB, dodecyltrimethylammonium bromide]
CMC [1]: 3515.1 µg/mL
MIC ([2]; read-out: MIC S. aureus): 31.2 µg/mL
MIC ([3]; read-out: MIC C. albicans): 250 µg/mL
MIC ([4]; read-out: MIC E. coli, soluble surfactant, 15.6 to 500 μg/ml, 18 h at 37° C.): 125 µg/mL
MIC E. coli [4, 6]: 62.5 µg/mL

CMC [1]: 7.8 µg/mL
SMILES: CCCCCCCCCCCCCC[N+](C)(C)CCCCCCCCCCCCCC.[Br-] [DTDAB, ditetradecyldimethylammonium bromide]

CMC [1]: 246.2 µg/mL
MIC [2, 5]: 125 µg/mL
SMILES: CCCCCCCCCCCC[N+](C)(CCCCCCCCCCCC)CCCCCCCCCCCC.[Cl-] [TMAC, tridodecylmethylammonium chloride]
